Results as given in PubChem BioAssay (NCI).
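A five-concentration, 48-hour dose response in 96-well plates underlies each endpoint, interpolated linearly between surrounding concentrations. TGI marks complete inhibition of growth.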

Legend:
Experiment in all cases: NCI-60 cell line screen, 48 h
[1] = test system: OVCAR-5 ovarian
[2] = test system: K-562 leukemia
[3] = test system: M14 melanoma
[4] = test system: KM20L2 colon
[5] = test system: UO-31 renal
[6] = test system: UACC-62 melanoma
[7] = test system: DLD-1 colon
[8] = test system: LXFL 529 NSCLC
[9] = test system: HCC-2998 colon
[10] = test system: ACHN renal
[11] = test system: SK-OV-3 ovarian
[12] = test system: TK-10 renal
[13] = test system: NCI-H522 lung
[14] = test system: UACC-257 melanoma
[15] = test system: CAKI-1 renal
[16] = test system: EKVX NSCLC
[17] = test system: DMS 114 small cell lung
[18] = test system: M19-MEL melanoma
[19] = test system: SF-268 CNS
[20] = test system: SW-620 colon
[21] = test system: HOP-62 NSCLC
[22] = test system: RXF 393 renal
[23] = test system: COLO 205 colon
[24] = test system: HCT-15 colon
[25] = test system: A498 renal
[26] = test system: SK-MEL-28 melanoma
[27] = test system: OVCAR-4 ovarian
[28] = test system: SR leukemia
[29] = test system: U251 CNS
[30] = test system: SK-MEL-5 melanoma
[31] = test system: NCI-H460 lung
[32] = test system: LOX IMVI melanoma
[33] = test system: RPMI-8226 leukemia
[34] = test system: T-47D breast
[35] = test system: MALME-3M melanoma
[36] = test system: OVCAR-3 ovarian
[37] = test system: SNB-75 CNS
[38] = test system: OVCAR-8 ovarian
[39] = test system: CCRF-CEM leukemia
[40] = test system: SN12C renal
[41] = test system: MDA-MB-435
[42] = test system: DU-145 prostate
[43] = test system: IGROV1 ovarian
[44] = test system: A549 NSCLC
[45] = test system: NCI-H226 lung
[46] = test system: BT-549 breast
[47] = test system: 786-0 renal
[48] = test system: NCI-H23 lung
[49] = test system: HT29 colon
[50] = test system: HCT-116 colon
[51] = test system: MDA-MB-231 breast
[52] = test system: SF-539 CNS
[53] = test system: HL-60(TB) leukemia
[54] = test system: SF-295 CNS
[55] = test system: MOLT-4 leukemia
[56] = test system: SK-MEL-2 melanoma
[57] = test system: KM12 colon
[58] = test system: HS 578T breast
[59] = test system: PC-3 prostate
[60] = test system: NCI/ADR-RES ovarian
[61] = test system: HOP-92 NSCLC
[62] = test system: MCF7 breast
[63] = test system: MDA-N
[64] = test system: SNB-19 CNS
[65] = test system: HOP-18 NSCLC
[66] = test system: DMS 273 small cell lung
[67] = test system: XF 498 CNS

With CCCCCCCCCCCCCCCC[N+](C)(C)Cc1ccc(C[N+](C)(C)CCCCCCCCCCCCCCCC)cc1 the TGI [1] was 4.67 µM, the TGI [2] was 8.52 µM and the TGI [3] was > 100 µM. The TGI [4] was > 100 µM, the TGI [5] was > 100 µM and the TGI [6] was > 100 µM. The TGI [7] was > 100 µM, the TGI [8] was > 100 µM and the TGI [9] was > 100 µM. The TGI [10] was > 100 µM, the TGI [11] was 5.27 µM and the TGI [12] was > 100 µM. For the same molecule, the TGI [13] was > 22.4 µM, the TGI [14] was > 100 µM and the TGI [15] was > 100 µM. For the same molecule, the TGI [16] was > 100 µM, the TGI [17] was 5.02 µM and the TGI [18] was > 100 µM. For the same molecule, the TGI [19] was > 100 µM, the TGI [20] was > 100 µM and the TGI [21] was > 100 µM. For the same molecule, the TGI [22] was 3.27 µM, the TGI [23] was > 100 µM and the TGI [24] was > 100 µM. For the same molecule, the TGI [25] was > 100 µM, the TGI [26] was 7.57 µM and the TGI [27] was > 100 µM. For the same molecule, the TGI [28] was > 100 µM, the TGI [29] was 3.82 µM and the TGI [30] was > 100 µM. For the same molecule, the TGI [31] was 8.71 µM, the TGI [32] was 6.07 µM and the TGI [33] was > 100 µM.
For O=C(CCSC(CC(=O)c1ccc(Cl)cc1)c1ccc(Cl)cc1)Nc1ccc(Cl)cc1 (centres undefined), the TGI [34] was 22.2 µM, the TGI [35] was 30.6 µM and the TGI [36] was 27.1 µM. For the same molecule, the TGI [37] was 36.4 µM, the TGI [1] was 31.6 µM and the TGI [38] was 29.1 µM. For the same molecule, the TGI [2] was 18.6 µM, the TGI [39] was 5.55 µM and the TGI [3] was 28.2 µM. It also gave a TGI [5] of 26.9 µM, a TGI [40] of 24.8 µM and a TGI [41] of 25.6 µM. The TGI [6] was 21.9 µM, the TGI [42] was 27 µM and the TGI [9] was 27 µM. It also gave a TGI [10] of 27.5 µM, a TGI [43] of 29.6 µM and a TGI [44] of 40 µM. It also gave a TGI [45] of 41.5 µM, a TGI [46] of 27.1 µM and a TGI [11] of 42.3 µM. The TGI [12] was 29.9 µM, the TGI [13] was 40.2 µM and the TGI [14] was 29.6 µM. It also gave a TGI [15] of 57.2 µM, a TGI [47] of 27.6 µM and a TGI [16] of 25.4 µM. The TGI [48] was 30.4 µM, the TGI [19] was 29 µM and the TGI [20] was 10.5 µM. The TGI [21] was 29.1 µM, the TGI [22] was 28.2 µM and the TGI [23] was 35.2 µM. The TGI [24] was 24.2 µM, the TGI [49] was 24.6 µM and the TGI [25] was 25.1 µM. It also gave a TGI [50] of 18.5 µM, a TGI [51] of 33.4 µM and a TGI [26] of 29.4 µM. It also gave a TGI [52] of 32.6 µM, a TGI [27] of 35.5 µM and a TGI [28] of 9.57 µM. The TGI [53] was 20.4 µM, the TGI [54] was 25.8 µM and the TGI [55] was 11.5 µM. The TGI [56] was 28.9 µM, the TGI [57] was 12.4 µM and the TGI [29] was 21.1 µM. For the same molecule, the TGI [30] was 29.4 µM, the TGI [31] was 28.6 µM and the TGI [58] was 64.1 µM. It also gave a TGI [32] of 18.3 µM, a TGI [59] of 27.1 µM and a TGI [60] of 40.2 µM. The TGI [61] was 32.9 µM, the TGI [62] was 15.3 µM and the TGI [63] was 26 µM. It also gave a TGI [33] of 5.57 µM and a TGI [64] of 26.6 µM.
Work on CN(C)[C@@H]1C(=O)C(C(N)=O)=C(O)[C@@]2(O)C(=O)C3=C(O)c4c(O)cccc4C[C@H]3C[C@@H]12 yielded a TGI [35] of 2.92 µM, a TGI [37] of 2.98 µM and a TGI [38] of 9.52 µM. It also gave a TGI [2] of 6.65 µM, a TGI [39] of 5.65 µM and a TGI [3] of 3.87 µM. It also gave a TGI [4] of 6.18 µM, a TGI [5] of 4.08 µM and a TGI [65] of 3.56 µM. It also gave a TGI [6] of 3.14 µM, a TGI [7] of 10.8 µM and a TGI [8] of 3.88 µM. It also gave a TGI [10] of 14.3 µM, a TGI [43] of 4.8 µM and a TGI [44] of 5.52 µM. The TGI [11] was 3.96 µM, the TGI [12] was 7.53 µM and the TGI [13] was 4.29 µM. It also gave a TGI [15] of 4.3 µM, a TGI [47] of 5.92 µM and a TGI [17] of 6.41 µM. The TGI [48] was 4.27 µM, the TGI [18] was 3.12 µM and the TGI [19] was 3.23 µM. For the same molecule, the TGI [20] was 9.84 µM, the TGI [21] was 4.21 µM and the TGI [22] was 3.11 µM. It also gave a TGI [23] of 3.25 µM, a TGI [24] of 22 µM and a TGI [25] of 4.56 µM. For the same molecule, the TGI [50] was 3.28 µM, the TGI [26] was 3.19 µM and the TGI [52] was 3.84 µM. For the same molecule, the TGI [27] was 3.26 µM, the TGI [28] was 6.05 µM and the TGI [54] was 3.22 µM. For the same molecule, the TGI [55] was 5.55 µM, the TGI [56] was 3.31 µM and the TGI [57] was 6.54 µM. It also gave a TGI [29] of 4.68 µM, a TGI [30] of 3.63 µM and a TGI [31] of 6.48 µM. The TGI [61] was 5.19 µM and the TGI [64] was 4.47 µM.
N=C(N)/N=C(/C=C/c1ccccc1)CC1OC(=O)c2ccccc21 (centres undefined) was tested, and the TGI [35] was > 100 µM, the TGI [37] was > 100 µM and the TGI [38] was > 100 µM. The TGI [2] was > 100 µM, the TGI [39] was > 100 µM and the TGI [3] was > 100 µM. The TGI [4] was > 100 µM, the TGI [5] was > 100 µM and the TGI [40] was > 100 µM. For the same molecule, the TGI [6] was > 100 µM, the TGI [7] was > 100 µM and the TGI [8] was > 100 µM. For the same molecule, the TGI [9] was > 100 µM, the TGI [10] was > 100 µM and the TGI [43] was > 100 µM. For the same molecule, the TGI [44] was > 100 µM, the TGI [45] was > 100 µM and the TGI [13] was > 100 µM. The TGI [14] was > 100 µM, the TGI [15] was > 100 µM and the TGI [47] was > 100 µM. For the same molecule, the TGI [16] was > 100 µM, the TGI [17] was > 100 µM and the TGI [18] was > 100 µM. For the same molecule, the TGI [19] was > 100 µM, the TGI [20] was > 100 µM and the TGI [21] was > 100 µM. For the same molecule, the TGI [22] was > 100 µM, the TGI [23] was > 100 µM and the TGI [24] was > 100 µM. The TGI [66] was > 100 µM, the TGI [67] was > 100 µM and the TGI [49] was > 100 µM. For the same molecule, the TGI [25] was > 100 µM, the TGI [50] was > 100 µM and the TGI [52] was > 100 µM. For the same molecule, the TGI [27] was > 100 µM, the TGI [28] was > 100 µM and the TGI [53] was > 100 µM. For the same molecule, the TGI [55] was > 100 µM, the TGI [56] was > 100 µM and the TGI [57] was > 100 µM. For the same molecule, the TGI [29] was > 100 µM, the TGI [30] was > 100 µM and the TGI [31] was > 100 µM. The TGI [32] was > 100 µM, the TGI [33] was > 100 µM and the TGI [64] was > 100 µM.
